# Laboratory results from patent publication US12624018B1, “Inhibitors of RIPK2 and medical uses thereof” (Odyssey Therapeutics, Inc., priority 2022, dated 2026).
# Biological target: T1, RIPK2 enzyme (Homo sapiens, UniProt O43353)
# T1 construct: purchased Carna 09-128
# Experiment: RIPK2 inhibition (ADP-Glo Kinase Assay)
# Format: biochemical
# Conditions: RIPK2 5 nM, ATP 150 μM, MBP substrate, read-out: RIPK2 IC50
# Procedure, shortened: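 Human RIPK2 (5 nM) preincubated with compound 30 min at room temperature in 50 mM HEPES pH 7.5, 10 mM MgCl2, 2 mM DTT, 1 mM EGTA, 0.01% Brij-35, 0.05% BSA; native swine MBP as substrate. ADP formed quantified by ADP-Glo luminescence; percent inhibition relative to DMSO and no-enzyme controls.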
# T1 sequence (O43353 1-299 limits assumed): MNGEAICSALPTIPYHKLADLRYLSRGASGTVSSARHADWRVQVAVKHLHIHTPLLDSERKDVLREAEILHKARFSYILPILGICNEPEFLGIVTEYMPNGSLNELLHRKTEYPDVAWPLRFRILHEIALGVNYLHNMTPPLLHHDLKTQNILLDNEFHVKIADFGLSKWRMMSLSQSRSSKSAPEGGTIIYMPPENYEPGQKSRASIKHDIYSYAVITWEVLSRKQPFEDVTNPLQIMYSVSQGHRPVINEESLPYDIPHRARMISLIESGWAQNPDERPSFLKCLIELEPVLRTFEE
row,SMILES,IC50
1,"Cc1cc(CC(=O)Nc2cnn(C(C)(C)C)c2)c(F)cc1Oc1ccnc2ccc(CN3C[C@H]4C[C@@H]3CO4)cc12 [Compound 423, 2-(4-((6-(((1R,4R)-2-oxa-5-azabicyclo[2.2.1]heptan-5-yl)methyl)quinolin-4-yl)oxy)-2-fluoro-5-methylphenyl)-N-(1-(tert-butyl)-1H-pyrazol-4-yl)acetamide]",< 2.5 nM
2,"Cc1cc(CC(=O)Nc2cnn(C(C)(C)C)c2)c(F)cc1Oc1ccnc2ccc(C(=O)NCC(F)(F)F)cc12 [Compound 362, 4-(4-(2-((1-(tert-butyl)-1H-pyrazol-4-yl)amino)-2-oxoethyl)-5-fluoro-2-methyl-phenoxy)-N-(2,2,2-trifluoroethyl) quinoline-6-carboxamide]",< 2.5 nM
3,"Cc1cc(CC(=O)Nc2cnn(C(C)(C)C)c2)c(F)cc1Oc1ccnc2ccc(C(=O)NC3(C)CC3)cc12 [Compound 458, 4-(4-(2-((1-(tert-butyl)-1H-pyrazol-4-yl)amino)-2-oxoethyl)-5-fluoro-2-methylphenoxy)-N-(1-methylcyclopropyl)quinoline-6-carboxamide]",< 2.5 nM
4,"Cc1cc(CC(=O)Nc2cnn(C(C)(C)C)c2)ccc1Oc1ccnc2ccc(N3CCC(O)C3=O)cc12 (single isomer, unassigned) [Compound 327, N-(1-(tert-butyl)-1H-pyrazol-4-yl)-2-(4-((6-(3-hydroxy-2-oxopyrrolidin-1-yl)quinolin-4-yl)oxy)-3-methylphenyl) acetamide]",< 2.5 nM
5,"CC(C)(C)n1cc(NC(=O)Cc2ccc(Oc3ncnc4ccc(C(N)=O)cc34)cc2F)cn1 [Compound 24, 4-(4-(2-((1-(tert-butyl)-1H-pyrazol-4-yl)amino)-2-oxoethyl)-3-fluoro-phenoxy) quinazoline-6-carboxamide]",7.4 nM
6,"Cc1cc(CC(=O)Nc2cnn(C(C)(C)C)c2)c(F)cc1Oc1ccnc2ccc(CN3CCNCC3)cc12 [Compound 419, N-(1-(tert-butyl)-1H-pyrazol-4-yl)-2-(2-fluoro-5-methyl-4-((6-(piperazin-1-ylmethyl)quinolin-4-yl)oxy)phenyl)acetamide]",< 2.5 nM
7,"CCN1CCC(Oc2ccc3ncnc(Oc4ccc(CC(=O)Nc5cnn(C(C)(C)C)c5)cc4C)c3c2)CC1 [Compound 109, N-(1-(tert-butyl)-1H-pyrazol-4-yl)-2-(4-((6-((1-ethyl-piperidin-4-yl)oxy)quinazolin-4-yl)oxy)-3-methylphenyl) acetamide]",3.9 nM
8,"COc1ccc2ncnc(Oc3ccc(CC(=O)Nc4cnn(C(C)(C)C)c4)c(F)c3F)c2c1 [Compound 47, N-(1-(tert-butyl)-1H-pyrazol-4-yl)-2-(2,3-difluoro-4-((6-methoxy-quinazolin-4-yl)oxy)phenyl) acetamide]",3.9 nM
9,"Cc1c(Oc2ccnc3ccc(OC4CCNCC4)cc23)ccc(CC(=O)Nc2cnn(C(C)(C)C)c2)c1F [Compound 102, N-(1-(tert-butyl)-1H-pyrazol-4-yl)-2-(2-fluoro-3-methyl-4-((6-(piperidin-4-yloxy)quinolin-4-yl)oxy)phenyl) acetamide]",< 2.5 nM
10,"Cc1cc(CC(=O)Nc2cnn(C(C)(C)C)c2)ccc1Oc1ccnc2ccc(S(=O)(=O)N3CCN(C)CC3)cc12 [Compound 118, N-(1-(tert-butyl)-1H-pyrazol-4-yl)-2-(3-methyl-4-((6-((4-methylpiperazin-1-yl)sulfonyl)quinolin-4-yl)oxy)phenyl)acetamide]",< 2.5 nM
11,"CC(C)(C)n1cc(NC(=O)Cc2ccc(Oc3ncnc4ccc(OC5CCNCC5)cc34)c(Cl)c2)cn1 [Compound 158, N-(1-(tert-butyl)-1H-pyrazol-4-yl)-2-(3-chloro-4-((6-(piperidin-4-yloxy)quinazolin-4-yl)oxy)phenyl) acetamide]",< 2.5 nM
12,"CN1CCN(S(=O)(=O)c2ccc3nccc(Oc4ccc(CC(=O)Nc5cnn(C(C)(C)C)c5)c(F)c4)c3c2)CC1 [Compound 126, N-(1-(tert-butyl)-1H-pyrazol-4-yl)-2-(2-fluoro-4-((6-((4-methylpiperazin-1-yl)sulfonyl)quinolin-4-yl)oxy)phenyl)acetamide]",< 2.5 nM
13,"CC(C)(C)n1cc(NC(=O)Cc2ccc(Oc3ccnc4ccc(S(N)(=O)=O)cc34)cc2F)cn1 [Compound 46, N-(1-(tert-butyl)-1H-pyrazol-4-yl)-2-(2-fluoro-4-((6-sulfamoylquinolin-4-yl)oxy)phenyl)acetamide]",< 2.5 nM
14,"Cc1cc(CC(=O)Nc2cnn(C(C)(C)C)c2)ccc1Oc1ccnc2ccc(C(=O)N3CCNCC3)cc12 [Compound 207, N-(1-(tert-butyl)-1H-pyrazol-4-yl)-2-(3-methyl-4-((6-(piperazine-1-carbonyl)quinolin-4-yl)oxy)phenyl) acetamide]",< 2.5 nM
15,"Cc1cc(CC(=O)Nc2cnn(C(C)(C)C)c2)ccc1Oc1ccnc2ccc(OC3CCN(CC(F)F)CC3)cc12 [Compound 120, N-(1-(tert-butyl)-1H-pyrazol-4-yl)-2-(4-((6-((1-(2,2-difluoroethyl)piperidin-4-yl)oxy)quinolin-4-yl)oxy)-3-methylphenyl) acetamide]",< 2.5 nM
16,"Cc1cc(CC(=O)Nc2cnn(C(C)(C)C)c2)c(F)cc1Oc1ccnc2ccc(C(=O)N3CCOCC3)cc12 [Compound 378, N-(1-(tert-butyl)-1H-pyrazol-4-yl)-2-(2-fluoro-5-methyl-4-((6-(morpholine-4-carbonyl)quinolin-4-yl)oxy)phenyl) acetamide]",< 2.5 nM
17,"Cc1c(Oc2ccnc3ccc(N(C)S(C)(=O)=O)cc23)ccc(CC(=O)Nc2cnn(C(C)(C)C)c2)c1F [Compound 278, N-(1-(tert-butyl)-1H-pyrazol-4-yl)-2-(2-fluoro-3-methyl-4-((6-(N-methylmethyl-sulfonamido)quinolin-4-yl)oxy)phenyl) acetamide]",< 2.5 nM
18,Cc1cc(CC(=O)Nc2cnn(C(C)(C)C)c2)c(F)cc1Oc1ncnc2ccc(OC3CCNCC3)cc12 [Compound 116],< 2.5 nM
19,"CN1CCC(Cc2ccc3nccc(Oc4cnc(CC(=O)Nc5cnn(C(C)(C)C)c5)c(F)c4)c3c2)CC1 [Compound 139, N-(1-(tert-butyl)-1H-pyrazol-4-yl)-2-(3-fluoro-5-((6-((1-methylpiperidin-4-yl)methyl)quinolin-4-yl)oxy)pyridin-2-yl)acetamide]",3.2 nM
20,"Cc1cc(CC(=O)Nc2cnn(C(C)(C)C)c2)ccc1Oc1ccnc2ccc([S+](C)[O-])cc12 (single isomer, unassigned) [Compound 321, N-(1-(tert-butyl)-1H-pyrazol-4-yl)-2-(3-methyl-4-((6-(methylsulfinyl)quinolin-4-yl)oxy)phenyl)acetamide]",< 2.5 nM
21,"COCCN(C)C(=O)c1ccc2nccc(Oc3ccc(CC(=O)Nc4cnn(C(C)(C)C)c4)c(F)c3C)c2c1 [Compound 343, 4-(4-(2-((1-(tert-butyl)-1H-pyrazol-4-yl)amino)-2-oxoethyl)-3-fluoro-2-methyl-phenoxy)-N-(2-methoxyethyl)-N-methyl-quinoline-6-carboxamide]",< 2.5 nM
22,"CC(C)(C)n1cc(NC(=O)Cc2ccc(Oc3ccnc4ccc(N5CCOCC5=O)cc34)cc2F)cn1 [Compound 154, N-(1-(tert-butyl)-1H-pyrazol-4-yl)-2-(2-fluoro-4-((6-(3-oxomorpholino)quinolin-4-yl)oxy)phenyl) acetamide]",< 2.5 nM
